Test results published in PMC6770214, “An Aromatic Aldehyde Synthase Controls the Synthesis of Hydroxytyrosol Derivatives Present in Virgin Olive Oil” (Antioxidants, 2019).

T1: OeAAS (Olea europaea, UniProt A0A8S0T2W9)
T1 construct: gene OLEA9_A000744; codon-optimised synthetic gene in pET-28a(+)-TEV (NdeI-XhoI), His-tagged, E. coli BL21(DE3), Ni-NTA
T1 sequence (A0A8S0T2W9 1-487): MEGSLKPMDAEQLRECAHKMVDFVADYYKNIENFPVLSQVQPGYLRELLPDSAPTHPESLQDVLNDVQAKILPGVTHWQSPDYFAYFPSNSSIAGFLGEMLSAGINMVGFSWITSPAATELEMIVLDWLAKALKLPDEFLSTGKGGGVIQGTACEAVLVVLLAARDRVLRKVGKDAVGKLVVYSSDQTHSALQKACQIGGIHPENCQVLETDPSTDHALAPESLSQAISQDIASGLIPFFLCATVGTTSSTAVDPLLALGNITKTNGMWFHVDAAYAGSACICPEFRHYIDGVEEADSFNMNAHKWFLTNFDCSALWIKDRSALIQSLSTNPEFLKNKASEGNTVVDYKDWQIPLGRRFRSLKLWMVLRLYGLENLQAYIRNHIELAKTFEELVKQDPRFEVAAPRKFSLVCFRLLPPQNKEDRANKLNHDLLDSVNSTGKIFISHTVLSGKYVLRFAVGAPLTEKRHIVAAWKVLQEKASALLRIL

B1: OeAAS (Olea europaea subsp. europaea) (protein)
chain: T1 sequence (A0A8S0T2W9 1-487)
notes: codon-optimised synthetic gene in pET-28a(+)-TEV (NdeI-XhoI), His-tagged, E. coli BL21(DE3), Ni-NTA

What was measured:
[1] = target: T1, OeAAS; assay: loss and restoration of enzyme activity without / with PLP; format: biochemical; conditions: PLP omitted during purification or in reaction medium
[2] = substrate: N[C@@H](Cc1ccc(O)c(O)c1)C(=O)O; assay: HPLC-DAD quantification of aldehyde product; format: biochemical, Olea europaea; conditions: 50 mM sodium phosphate pH 6.8, 200 uM PLP, 30 °C, 20 min, L-DOPA 0.05-5 mM

| Molecule | loss and restoration of enzyme activity without / with PLP [1] | Km [2] [µM] |
| --- | --- | --- |
| Cc1ncc(COP(=O)(O)O)c(C=O)c1O [PLP] | absence of PLP during purification or in the reaction medium resulted in a total loss | – |
| B1 | – | 150 |
